Assay results as given in patent US20080039422A1, “Vitamin B12-Containing Compositions and Methods of Use” (Transition Therapeutics Inc., priority 2004, published 2008).
Values joined by “and” are separate entries in the source; they are usually repeats but may differ in a detail not shown here. Identical values can stand only once.

Test: Solubility study (saturated solubility of CN-Cbl, 25°C, 16 hours, UV)
Type: physicochemical
Description: During the solubility study the following were investigated: • cosolvents (mixtures of ethanol and propylene glycol) • in-situ salt formers • surfactants • pH effects • in-situ salt formers and cosolvents Solubility Study Method
Results of CN-Cbl Solubility in Water and Determination of Equilibrium Time

- pH of CN-Cbl Solution (Ref. FD4068 38B, 10% v/v Ethanol, 40% v/v Propylene Glycol, 0.1 M Choline, Initial pH 7.85): 7.70
- Saturated Solubility (Ref. FD4068 39B, 10% v/v Ethanol, 40% v/v Propylene Glycol, 0.1 M Choline, pH adjusted with hydrochloric acid, Initial pH 8.99): 63.1 mg/mL
- pH of CN-Cbl Solution (Ref. FD4068 39B, 10% v/v Ethanol, 40% v/v Propylene Glycol, 0.1 M Choline, Initial pH 8.99): 8.01
- Saturated Solubility (Ref. FD4068 39C, 10% v/v Ethanol, 40% v/v Propylene Glycol, 0.1 M Choline, pH adjusted with hydrochloric acid, Initial pH 7.43): 63 mg/mL
- pH of CN-Cbl Solution (Ref. FD4068 39C, 10% v/v Ethanol, 40% v/v Propylene Glycol, 0.1 M Choline, Initial pH 7.43): 8.00
- Saturated Solubility (Ref. FD4068 42A, Choline 0.055 M (6.71 mg/ml), 40% v/v propylene glycol, 10% v/v ethanol): 80.8 mg/ml and 0.060 M
- pH of CN-Cbl Solultion (Ref. FD4068 42A, Choline 0.055 M, 40% v/v propylene glycol, 10% v/v ethanol, Initial pH 12.49): 12.44
- Saturated Solubility (Ref. FD4068 42B, Choline 0.068 M (8.23 mg/ml), 40% v/v propylene glycol, 10% v/v ethanol): 82.8 mg/ml and 0.061 M
- pH of CN-Cbl Solultion (Ref. FD4068 42B, Choline 0.068 M, 40% v/v propylene glycol, 10% v/v ethanol, Initial pH 12.63): 12.53
- Saturated Solubility (Ref. FD4068 43A, Choline 0.111 M (13.41 mg/ml), 40% v/v propylene glycol, 10% v/v ethanol): 92.1 mg/ml and 0.068 M
- pH of CN-Cbl Solultion (Ref. FD4068 43A, Choline 0.111 M, 40% v/v propylene glycol, 10% v/v ethanol, Initial pH 12.80): 12.76
- pH of CN-Cbl Solution (Ref. FD4068 89B, 0.15 ml 2m HCl + 0.025M pH 5.6 citrate buffer, Choline 0.044 M): 6.97
- Saturated Solubility (Ref. FD4068 89B, 0.15 ml 2m HCl + 0.025M pH 5.6 citrate buffer, Choline 0.044 M (5.34 mg/ml), Initial pH 7.03): 52.6 mg/mL
- pH of CN-Cbl Solution (Ref. FD4068 96, 0.2 ml 2M HCl + 0.025M pH 7.0 phosphate buffer, Choline 0.044 M): 7.96
- Saturated Solubility (Ref. FD4068 96, 0.2 ml 2M HCl + 0.025M pH 7.0 phosphate buffer, Choline 0.044 M (5.34 mg/ml), Initial pH 8.10): 54.5 mg/mL
- pH of CN-Cbl Solution (Ref. FD4068 102A, 0.4m 2M HCl + 0.025M pH 6.8 phosphate buffer, Choline 0.088 M): 7.97
- Saturated Solubility (Ref. FD4068 102A, 0.4m 2M HCl + 0.025M pH 6.8 phosphate buffer, Choline 0.088 M (10.67 mg/ml), Initial pH 8.12): 58.5 mg/mL
- pH of CN-Cbl Solution (Ref. FD4068 103, no buffer, pH adjusted with HCl, Choline 0.044 M): 7.21
- Saturated Solubility (Ref. FD4068 103, no buffer, pH adjusted with HCl, Choline 0.044 M (5.34 mg/ml), Initial pH 8.05): 54.6 mg/mL
- Saturated Solubility (Ref. FD4068 107A, Choline chloride 0.044 M (6.14 mg/ml, Molar Ratio 1:1), 40% v/v propylene glycol, 10% v/v ethanol, pH adjusted to 8 with sodium hydroxide): 53.2 mg/mL
- pH of CN-Cbl Solution (Ref. FD4068 107A, Choline chloride 0.044 M, 40% v/v propylene glycol, 10% v/v ethanol): 6.36
- Saturated Solubility (Ref. FD4068 108B, Choline chloride 0.221 M (30.86 mg/ml, Molar Ratio 1:5), 40% v/v propylene glycol, 10% v/v ethanol, pH adjusted to 8 with sodium hydroxide): 60.1 mg/mL
- pH of CN-Cbl Solution (Ref. FD4068 108B, Choline chloride 0.221 M, 40% v/v propylene glycol, 10% v/v ethanol): 6.51
- Saturated Solubility (Ref. FD4068 109A, Choline chloride 0.133 M (18.57 mg/ml, Molar Ratio 1:3), 40% v/v propylene glycol, 10% v/v ethanol, pH adjusted to 8 with sodium hydroxide): 57.4 mg/mL
- pH of CN-Cbl Solution (Ref. FD4068 109A, Choline chloride 0.133 M, 40% v/v propylene glycol, 10% v/v ethanol): 6.63
- Saturated Solubility (Ref. FD4068 110A, Choline chloride 0.443 M (61.81 mg/ml, Molar Ratio 1:10), 40% v/v propylene glycol, 10% v/v ethanol, pH adjusted to 8 with sodium hydroxide): 66.6 mg/mL
- pH of CN-Cbl Solution (Ref. FD4068 110A, Choline chloride 0.443 M, 40% v/v propylene glycol, 10% v/v ethanol): 6.40
- Saturated Solubility (Ref. FD4068 112A, Choline chloride 0.443 M (61.81 mg/ml, 1:10), 40% v/v propylene glycol, 10% v/v ethanol, 0.025 M phosphate buffer pH 8): 66.8 mg/mL
- pH of CN-Cbl Solution (Ref. FD4068 112A, Choline chloride 0.443 M, 40% v/v propylene glycol, 10% v/v ethanol, 0.025 M phosphate buffer): 7.93
- Saturated Solubility (Ref. FD4068 112B, Choline chloride 0.184 M (25.75 mg/ml, 1:5), 40% v/v propylene glycol, 10% v/v ethanol, 0.025 M phosphate buffer pH 8): 62.7 mg/mL
- pH of CN-Cbl Solution (Ref. FD4068 112B, Choline chloride 0.184 M, 40% v/v propylene glycol, 10% v/v ethanol, 0.025 M phosphate buffer): 7.97
- Saturated Solubility (Water, Equilibrium Time 16 hours): 15.25 mg/mL
- Saturated Solubility (Water, Equilibrium Time 24 hours): 15.47 mg/mL
- Saturated Solubility (Water, Equilibrium Time 40 hours): 15.27 mg/mL
- Saturated Solubility, mean (Water, mean of equilibrium times 16, 24, 40 hours): 15.33 mg/mL
- pH of CN-Cbl Solution (saturated in 0.1 M Choline (12.12 mg/ml)): 12.5 and 12.49
- pH of CN-Cbl Solution (saturated in 0.1 M Diethanolamine (10.51 mg/ml)): 10.15
- pH of CN-Cbl Solution (saturated in 0.1 M L-arginine (17.42 mg/ml)): 10.22
- pH of CN-Cbl Solution (saturated in 0.1 M L-lysine (16.42 mg/ml)): 9.59
- pH of CN-Cbl Solution (saturated in 0.1 M Meglumine (19.52 mg/ml)): 10.70
- pH of CN-Cbl Solution (saturated in 0.1 M Triethanolamine (14.92 mg/ml)): 9.26
- pH of CN-Cbl Solution (saturated in 0.1 M Triethylamine (10.12 mg/ml)): 11.42
Substance: cyanocobalamin [CN-Cbl]
